Tests used:
[1] = Binding affinity to polydA-polydT DNA by thermal denaturation assay
DNA = experiment: Binding affinity to calf thymus DNA by thermal denaturation assay; type: nucleic-acid assay; details: Bos taurus
Nucleic Acid [2] = experiment: Binding affinity to polyA-polyU double stranded RNA by thermal denaturation assay; type: nucleic-acid assay
Nucleic Acid [3] = experiment: Binding affinity to polyG-polyC double stranded RNA by thermal denaturation assay; type: nucleic-acid assay

- log K [1]: 5.1
- log K (DNA): 5.1
- ΔTm (DNA): 7.3 °C
- log K (Nucleic Acid [2]): 5.1
- ΔTm (Nucleic Acid [2]): -1.5 °C
- log K (Nucleic Acid [3]): 5.1
Compound: N=C(N)NC(=O)c1ccc(C(=O)NCCCCNC(=O)c2ccc3ccc4cccc5ccc2c3c45)[nH]1

Reference: ChEMBL document CHEMBL1145599, “A novel pyrene-guanidiniocarbonyl-pyrrole cation efficiently differentiates between ds-DNA and ds-RNA by two independent, sensitive spectroscopic methods” (Bioorg Med Chem Lett, 2008)
